Measured values taken from patent publication US20090074844A1, “TRENADERMAL ABSORPTION PREPARATION” (ONO PHARMACEUTICAL CO., LTD., priority 2005, published 2009).

Columns and labels:
[1] = In vitro skin permeability test (1), Franz type cell; assay type: in vitro ADME, rat; conditions: for cumulative permeation quantity until 24 hours: patch (pharmaceutical preparation 1A, 0.2 mg/cm^2) on rat abdominal skin, determined as compound B or PGE1, FIG. 1
Description: The hair-removed skin extracted from the abdominal region of each of male Wister rats (7 weeks of age, Wister/Slc, n=3) was attached to a Franz type cell (1.1 cm in diameter). The aforementioned pharmaceutical preparation 1A prepared in Example 1 was applied to the stratum corneum of the hair-removed skin extracted from the abdominal region. Hanks' buffer (HBSS) (Sigma, pH 7.4) was applied to the dermal layer side cell. HBSS (200 μL) was periodically collected from the dermal layer side cell, and compound B as the active form of compound A or PGE1 was determined by the HPLC method under the following conditions. Cumulative permeation quantities until 24 hours were determined to calculate average values.
Compound A (Active Form: Compound B)
Column: YMC-Pack ODS A-302 (4.6 mm I.d., 150 mm),
Column temperature: 50° C.,
Moving bed: 0.1% phosphoric acid aqueous solution: acetonitrile=7:3,
Detection wavelength: 220 nm,
Internal standard: ethyl p-hydroxybenzoate.
Column temperature: 30° C.,
Moving bed: 0.02 M potassium hydrogenphosphate aqueous solution:acetonitrile=3:2,
Detection wavelength: 205 nm,
Internal standard: n-propyl p-hydroxybenzoate.
FIG. 1 is a result of the in vitro skin permeability test (1) in Test Example (1) of Biological Examples. The cumulative permeation quantity of compound A represents a value calculated by converting the detected value of compound B into compound A.

[2] = Drug permeability test using human skin, Franz type cell, LC/MS/MS; assay type: in vitro ADME; conditions: preparation of Example 3 (70 μg/cm^2, oleyl alcohol), slope of cumulative permeation quantities, FIG. 4, n=3
Description: Drug permeability test using human skin Human skin purchased from Asterand (abdominal skin of a person, epidermal-dermal skin (no heat treatment), n=3) was attached to a Franz type cell (1.78 cm^2), and the pharmaceutical preparation produced in Example 3 was applied to the stratum corneum side. Physiological saline (8 ml) was applied to the dermal layer side cell. From the dermal layer side cell, 1 ml portion thereof was periodically collected, and the compound A and compound B were determined by LC/MS/MS method under the following conditions. Cumulative permeation quantities until 48 hours were determined to calculate average values.
LC/MS/MS Measuring Conditions (HPLC)
Measuring instrument: Perkin-Elmer Series 200 Micro-pumps and CTC […]
Flow rate: 300 μl/minute Injection quantity: 5 μl Running time: 4.5 minutes Retention time: compound A; until 3.45 minutes/compound B; until 3.25 minutes Mass spectrometry […]
Human skin permeability of compound A and compound B which is its active form was measured to calculate the cumulative permeation quantities, with the results shown in FIG. 4. Their skin permeation rates were calculated from the slope of cumulative permeation quantities in FIG. 4. […]
FIG. 4 is a result of a human skin permeability test which used the pharmaceutical preparations produced in Example 3. It represents cumulatively detected amounts of compound A and compound B.

skin permeation rate [2] | conversion of compound A into the active form, compound B, during permeation through the skin ([1]; patch preparation 1A on rat abdominal skin) | compound A in the dermal layer side cell ([1]; patch preparation 1A on rat abdominal skin, HBSS pH 7.4) | SMILES | cumulative permeation quantity until 24 hours ([1]; HBSS pH 7.4)
– | – | – | CCCCC[C@H](O)/C=C/[C@H]1[C@H](O)CC(=O)[C@@H]1CCCCCCC(=O)O [PGE1, reference compound] | high cumulative permeation quantity was not obtained
0.16±0.04 μg/cm^2/hr | completely converted | not detected | COCc1cccc(C[C@H](O)/C=C/[C@H]2[C@H](O)CC(=O)[C@@H]2CCSCCCC(=O)OC)c1 [compound A, methyl 4-{[2-((1R,2R,3R)-3-hydroxy-2-{(1E,3S)-3-hydroxy-4-[3-(methoxymethyl)phenyl]but-1-enyl}-5-oxocyclopentyl)ethyl]sulfanyl}butanoate] | high cumulative permeation quantity was obtained
0.07±0.01 μg/cm^2/hr | – | – | COCc1cccc(C[C@H](O)/C=C/[C@H]2[C@H](O)CC(=O)[C@@H]2CCSCCCC(=O)O)c1 [compound B, 4-{[2-((1R,2R,3R)-3-hydroxy-2-{(1E,3S)-3-hydroxy-4-[3-(methoxymethyl)phenyl]but-1-enyl}-5-oxocyclopentyl)ethyl]sulfanyl}butanoic acid] | –
